Experimental data: patent US20250387443A1, “ENHANCING ONCOLYTIC V[…] A COMBINATION OF NUCLEAR EXPORT INHIBITOR AND MYXOMA VIRUS […] DEATH PATHWAYS” (Arizona Board of Regents on behalf of Arizona State …, priority 2024, published 2025)

Key:
PANC-1 cells [1] = format: cell-based, human
Colo205 cells = format: cell-based, human
MDA-MB435 cells = format: cell-based, human
PANC-1 cells [2] = format: cell-based, human; remark: listed apart in the source
[3] = tested on: human xenograft tumor models; test: MYXV replication in human xenograft tumor models; format: in vivo; details: human xenograft tumor models in NSG mice
2D and 3D cell cultures = test: MYXV replication in 2D and 3D cell cultures; format: cell-based

O=C(/C=C\n1cnc(-c2cc(C(F)(F)F)cc(C(F)(F)F)c2)n1)NNc1cnccn1 [selinexor]
significantly enhanced: MYXV gene expression and replication (PANC-1 cells [1]) | MYXV gene expression and replication (Colo205 cells) | MYXV gene expression and replication (MDA-MB435 cells) | replication of vMyx-M11L-KO (progeny virus) (PANC-1 cells [2]) | replication of vMyx-hLIGHT (progeny virus) (PANC-1 cells [2]) | MYXV replication [3] | MYXV replication (2D and 3D cell cultures)
